From paper PMC5218480 (PLoS ONE, 2017)

Tested on: MV-4-11 cells
Assay: Gene expression microarray analysis (Affymetrix PrimeView) and GSEA
Type: cell-based, human
Set-up: RFU PODN (11730768_x_at) / Fold change /veh PODN (11730768_x_at) / RFU LINC00158 (11744669_a_at) / Fold change /veh LINC00158 (11744669_a_at) / RFU DUSP10 (11751237_a_at) / Fold change /veh DUSP10 (11751237_a_at) / RFU ID3 (11757404_x_at) / Fold change /veh ID3 (11757404_x_at) / RFU PLEKHG5 (11737974_s_at) / Fold change /veh PLEKHG5 (11737974_s_at) / RFU LRRC4B (11730491_at) / Fold change /veh LRRC4B (11730491_at) / RFU GIMAP4 (11747438_a_at) / Fold change /veh GIMAP4 (11747438_a_at) / RFU KRT8 (11758183_x_at) / Fold change /veh KRT8 (11758183_x_at) / RFU CNN1 (11734310_a_at) / Fold change /veh CNN1 (11734310_a_at) / RFU VPS37D (11726825_at) / Fold change /veh VPS37D (11726825_at) / RFU C10orf10 (11716522_x_at) / Fold change /veh C10orf10 (11716522_x_at) / RFU KIR2DL2 /// KIR2DL4 /// KIR2DL5A /// KIR2DL5B /// KIR2DS1 /// KIR2DS2 /// KIR2DS3 /// KIR2DS4 /// KIR3DL3 /// KIR3DL3 /// KIR3DS1 (11738374_at) / Fold change /veh KIR2DL2 /// KIR2DL4 /// KIR2DL5A /// KIR2DL5B /// KIR2DS1 /// KIR2DS2 /// KIR2DS3 /// KIR2DS4 /// KIR3DL3 /// KIR3DL3 /// KIR3DS1 (11738374_at) / RFU C1QL1 (11718748_at) / Fold change /veh C1QL1 (11718748_at) / RFU TMPRSS4 (11747572_a_at) / Fold change /veh TMPRSS4 (11747572_a_at) / RFU HAMP (11756126_x_at) / Fold change /veh HAMP (11756126_x_at) / RFU RNFT2 (11725882_a_at) / Fold change /veh RNFT2 (11725882_a_at) / RFU NR4A2 (11747474_a_at) / Fold change /veh NR4A2 (11747474_a_at) / RFU ABCC12 (11746883_a_at) / Fold change /veh ABCC12 (11746883_a_at) / RFU TMEM136 (11760407_x_at) / Fold change /veh TMEM136 (11760407_x_at) / RFU CLDN22 /// WWC2 (11732394_at) / Fold change /veh CLDN22 /// WWC2 (11732394_at) / RFU HLA-DPB1 (11760878_x_at) / Fold change /veh HLA-DPB1 (11760878_x_at) / RFU SPINT1 (11716480_a_at) / Fold change /veh SPINT1 (11716480_a_at) / RFU GAP43 (11754022_s_at) / Fold change /veh GAP43 (11754022_s_at) / RFU A4GNT (11735810_at) / Fold change /veh A4GNT (11735810_at) / RFU PRB3 (11715151_x_at) / Fold change /veh PRB3 (11715151_x_at) / RFU TUBB4B (11761932_at) / Fold change /veh TUBB4B (11761932_at) / RFU CAPN14 (11732068_a_at) / Fold change /veh CAPN14 (11732068_a_at) / RFU TMCC2 (11721928_a_at) / Fold change /veh TMCC2 (11721928_a_at) / RFU IRGQ (11745062_a_at) / Fold change /veh IRGQ (11745062_a_at) / RFU FAM174B (11720279_a_at) / Fold change /veh FAM174B (11720279_a_at) / RFU TMPRSS4 (11748680_a_at) / Fold change /veh TMPRSS4 (11748680_a_at) / RFU FAM212B (11763350_a_at) / Fold change /veh FAM212B (11763350_a_at) / RFU PLEKHG5 (11743358_a_at) / Fold change /veh PLEKHG5 (11743358_a_at) / RFU ZSCAN30 (11745921_a_at) / Fold change /veh ZSCAN30 (11745921_a_at) / RFU CMKLR1 (11741424_a_at) / Fold change /veh CMKLR1 (11741424_a_at) / RFU LOC101060620 /// MAPK8IP1 (11723275_at) / Fold change /veh LOC101060620 /// MAPK8IP1 (11723275_at) / RFU SPTSSB (11747773_x_at) / Fold change /veh SPTSSB (11747773_x_at) / RFU PRSS12 (11739890_at) / Fold change /veh PRSS12 (11739890_at) / RFU BIN1 (11741810_x_at) / Fold change /veh BIN1 (11741810_x_at) / RFU WNT11 (11732464_a_at) / Fold change /veh WNT11 (11732464_a_at) / RFU C10orf10 (11716521_a_at) / Fold change /veh C10orf10 (11716521_a_at) / RFU C5orf56 (11738089_at) / Fold change /veh C5orf56 (11738089_at) / RFU CYB561 (11721691_x_at) / Fold change /veh CYB561 (11721691_x_at) / RFU ANKRD19P (11752326_a_at) / Fold change /veh ANKRD19P (11752326_a_at) / RFU OR2T12 /// OR2T33 /// OR2T8 (11738714_s_at) / Fold change /veh OR2T12 /// OR2T33 /// OR2T8 (11738714_s_at) / RFU VCAN (11748164_a_at) / Fold change /veh VCAN (11748164_a_at) / RFU JSRP1 (11732532_at) / Fold change /veh JSRP1 (11732532_at) / RFU KRTAP10-11 (11738290_x_at) / Fold change /veh KRTAP10-11 (11738290_x_at) / RFU MYO3A (11730013_a_at) / Fold change /veh MYO3A (11730013_a_at) / RFU EBF3 (11725865_a_at) / Fold change /veh EBF3 (11725865_a_at) / RFU CAMK2N1 (11719241_x_at) / Fold change /veh CAMK2N1 (11719241_x_at) / RFU C5orf56 (11738088_a_at) / Fold change /veh C5orf56 (11738088_a_at) / RFU OLFML3 (11715873_a_at) / Fold change /veh OLFML3 (11715873_a_at) / RFU LOC100653217 /// NTM (11731650_a_at) / Fold change /veh LOC100653217 /// NTM (11731650_a_at) / RFU MAPK11 (11762145_a_at) / Fold change /veh MAPK11 (11762145_a_at) / RFU FIZ1 (11724087_x_at) / Fold change /veh FIZ1 (11724087_x_at) / RFU OASL (11726364_x_at) / Fold change /veh OASL (11726364_x_at) / RFU SOX15 (11748057_x_at) / Fold change /veh SOX15 (11748057_x_at) / RFU CD79A (11719716_a_at) / Fold change /veh CD79A (11719716_a_at) / RFU HIST1H1D (11736915_at) / Fold change /veh HIST1H1D (11736915_at) / RFU CASKIN2 (11723855_a_at) / Fold change /veh CASKIN2 (11723855_a_at) / RFU LOC730098 (11760151_x_at) / Fold change /veh LOC730098 (11760151_x_at) / RFU OR4N2 (11742367_at) / Fold change /veh OR4N2 (11742367_at) / RFU PRRT2 (11749266_a_at) / Fold change /veh PRRT2 (11749266_a_at) / RFU SNX32 (11753110_a_at) / Fold change /veh SNX32 (11753110_a_at) / RFU CDHR5 (11726645_a_at) / Fold change /veh CDHR5 (11726645_a_at) / RFU RCAN1 (11760418_a_at) / Fold change /veh RCAN1 (11760418_a_at) / RFU FAM167A (11723789_a_at) / Fold change /veh FAM167A (11723789_a_at) / RFU FAM26E (11764081_at) / Fold change /veh FAM26E (11764081_at) / RFU ISYNA1 (11749810_s_at) / Fold change /veh ISYNA1 (11749810_s_at) / RFU ACY1 (11761880_at) / Fold change /veh ACY1 (11761880_at) / RFU 11764098_at / Fold change /veh 11764098_at / RFU SAMD14 (11745864_x_at) / Fold change /veh SAMD14 (11745864_x_at) / RFU NPB (11741838_a_at) / Fold change /veh NPB (11741838_a_at) / RFU TMPRSS6 (11731388_a_at) / Fold change /veh TMPRSS6 (11731388_a_at) / RFU KRTAP10-2 (11738614_at) / Fold change /veh KRTAP10-2 (11738614_at) / RFU ARHGAP8 /// PRR5-ARHGAP8 (11727945_x_at) / Fold change /veh ARHGAP8 /// PRR5-ARHGAP8 (11727945_x_at) / RFU KRTAP5-7 /// NADSYN1 (11734609_at) / Fold change /veh KRTAP5-7 /// NADSYN1 (11734609_at) / RFU RASL12 (11751679_a_at) / Fold change /veh RASL12 (11751679_a_at) / RFU CDKN2B (11736163_a_at) / Fold change /veh CDKN2B (11736163_a_at) / RFU PRF1 (11729649_at) / Fold change /veh PRF1 (11729649_at) / RFU, ZNF638 /// ZNF638-IT1 / Fold change vs veh, ZNF638 /// ZNF638-IT1 / RFU, PANK3 / Fold change vs veh, PANK3 / RFU, SH3YL1 / Fold change vs veh, SH3YL1 / RFU, ZEB2 / Fold change vs veh, ZEB2 / RFU, NRIP1 / Fold change vs veh, NRIP1 / RFU, PTTG1IP / Fold change vs veh, PTTG1IP / RFU, CAPN2 / Fold change vs veh, CAPN2 / RFU, MED14 / Fold change vs veh, MED14 / RFU, SNORA58 / Fold change vs veh, SNORA58 / RFU, C1orf63 / Fold change vs veh, C1orf63 / RFU, LRRFIP1 / Fold change vs veh, LRRFIP1 / RFU, NDUFAF7 / Fold change vs veh, NDUFAF7 / RFU, SLC12A2 / Fold change vs veh, SLC12A2 / RFU, IBTK / Fold change vs veh, IBTK / RFU, ESF1 / Fold change vs veh, ESF1 / Fold change vs veh, TMEM50B / RFU, TAOK1 / Fold change vs veh, TAOK1 / RFU, ACBD3 / Fold change vs veh, ACBD3 / RFU, TMA16 / Fold change vs veh, TMA16 / RFU, RWDD3 / Fold change vs veh, RWDD3 / RFU, BCAT1 / Fold change vs veh, BCAT1 / RFU, EDEM3 / Fold change vs veh, EDEM3 / RFU, TMEM33 / Fold change vs veh, TMEM33 / RFU, WDR75 / Fold change vs veh, WDR75 / RFU, AHCTF1 / Fold change vs veh, AHCTF1 / RFU, TFRC / Fold change vs veh, TFRC / RFU, ZDHHC17 / Fold change vs veh, ZDHHC17 / RFU, NOM1 / Fold change vs veh, NOM1 / RFU, ARL8B / Fold change vs veh, ARL8B / RFU, ZBTB11 / Fold change vs veh, ZBTB11 / RFU, TAMM41 / Fold change vs veh, TAMM41 / RFU, KIAA1704 /// LOC100996395 / Fold change vs veh, KIAA1704 /// LOC100996395 / RFU, ING1 / Fold change vs veh, ING1 / RFU, TRMT61B / Fold change vs veh, TRMT61B / RFU, FUBP3 / Fold change vs veh, FUBP3 / RFU, TP53 / Fold change vs veh, TP53 / RFU, TNKS2 / Fold change vs veh, TNKS2 / RFU, ZFP14 / Fold change vs veh, ZFP14 / RFU, ACTR2 / Fold change vs veh, ACTR2 / RFU, PPP3R1 / Fold change vs veh, PPP3R1 / RFU, PIK3R1 / Fold change vs veh, PIK3R1 / RFU, HNRNPA1 / Fold change vs veh, HNRNPA1 / RFU, RNF170 / Fold change vs veh, RNF170 / RFU, ZNF28 / Fold change vs veh, ZNF28 / RFU, RNGTT / Fold change vs veh, RNGTT / RFU, OGT / Fold change vs veh, OGT / RFU, BRD1 / Fold change vs veh, BRD1 / RFU, MARS / Fold change vs veh, MARS / RFU, ZNF655 / Fold change vs veh, ZNF655 / RFU, FAHD1 / Fold change vs veh, FAHD1 / RFU, BDP1 / Fold change vs veh, BDP1 / RFU, LRRCC1 / Fold change vs veh, LRRCC1 / RFU, ARID1A / Fold change vs veh, ARID1A / RFU, ZNF146 / Fold change vs veh, ZNF146 / RFU, ZNF330 / Fold change vs veh, ZNF330 / RFU, GPN3 / Fold change vs veh, GPN3 / RFU, C9orf123 / Fold change vs veh, C9orf123 / RFU, N4BP2L2 / Fold change vs veh, N4BP2L2 / RFU, ARFIP1 / Fold change vs veh, ARFIP1 / RFU, FAM179B / Fold change vs veh, FAM179B / RFU, BCL10 / Fold change vs veh, BCL10 / RFU, UHRF1BP1L / Fold change vs veh, UHRF1BP1L / RFU, BET1 / Fold change vs veh, BET1 / RFU, CNOT2 / Fold change vs veh, CNOT2 / RFU, ZNF268 / Fold change vs veh, ZNF268 / Fold change vs veh, ZNF507 / RFU, DGCR2 / Fold change vs veh, DGCR2 / RFU, WDSUB1 / Fold change vs veh, WDSUB1 / Fold change vs veh, HSP90B1 /// MIR3652 / RFU, ADSS / Fold change vs veh, ADSS / RFU, GK / Fold change vs veh, GK / RFU, ZNF148 / Fold change vs veh, ZNF148 / RFU, TAF9 / Fold change vs veh, TAF9 / RFU, SLC1A5 / Fold change vs veh, SLC1A5 / RFU, SLMO2 / Fold change vs veh, SLMO2 / RFU, ABCC4 / Fold change vs veh, ABCC4 / RFU, LOC101060439 /// RAP1B / Fold change vs veh, LOC101060439 /// RAP1B / RFU, RFX7 / Fold change vs veh, RFX7 / RFU, GTPBP10 / Fold change vs veh, GTPBP10 / RFU, CNEP1R1 / Fold change vs veh, CNEP1R1 / RFU, BIVM-ERCC5 /// ERCC5 / Fold change vs veh, BIVM-ERCC5 /// ERCC5 / RFU, ILF3 / Fold change vs veh, ILF3 / RFU 11762660_at / Fold change /veh 11762660_at / RFU VCAN (11757783_s_at) / Fold change /veh VCAN (11757783_s_at) / RFU DDX43 (11728927_at) / Fold change /veh DDX43 (11728927_at) / RFU KRT8 (11758188_x_at) / Fold change /veh KRT8 (11758188_x_at) / RFU NKD1 (11759106_at) / Fold change /veh NKD1 (11759106_at) / RFU SRD5A1 (11742802_a_at) / Fold change /veh SRD5A1 (11742802_a_at) / RFU TPSAB1 /// TPSB2 (11721975_s_at) / Fold change /veh TPSAB1 /// TPSB2 (11721975_s_at) / RFU GSTM3 (11746129_a_at) / Fold change /veh GSTM3 (11746129_a_at) / RFU IL23R (11737362_x_at) / Fold change /veh IL23R (11737362_x_at) / RFU TMEM51 (11727254_a_at) / Fold change /veh TMEM51 (11727254_a_at) / RFU PIWIL2 (11732686_x_at) / Fold change /veh PIWIL2 (11732686_x_at) / RFU ORM1 (11744905_x_at) / Fold change /veh ORM1 (11744905_x_at) / RFU CCDC152 (11743942_at) / Fold change /veh CCDC152 (11743942_at) / RFU ECM1 (11717891_a_at) / Fold change /veh ECM1 (11717891_a_at) / RFU IL23R (11748794_a_at) / Fold change /veh IL23R (11748794_a_at) / RFU TNFAIP8L3 (11732012_x_at) / Fold change /veh TNFAIP8L3 (11732012_x_at) / RFU MBOAT4 (11741988_at) / Fold change /veh MBOAT4 (11741988_at) / RFU 11764193_at / Fold change /veh 11764193_at / RFU TMEM53 (11763286_at) / Fold change /veh TMEM53 (11763286_at) / RFU MAGEB2 (11727129_at) / Fold change /veh MAGEB2 (11727129_at) / RFU TMEM200A (11744735_a_at) / Fold change /veh TMEM200A (11744735_a_at) / RFU CCDC152 (11751479_a_at) / Fold change /veh CCDC152 (11751479_a_at) / RFU FAM211A (11726209_a_at) / Fold change /veh FAM211A (11726209_a_at) / RFU RGS16 (11746705_a_at) / Fold change /veh RGS16 (11746705_a_at) / RFU VCAN (11755009_s_at) / Fold change /veh VCAN (11755009_s_at) / RFU RHOB (11743442_s_at) / Fold change /veh RHOB (11743442_s_at) / RFU RGS16 (11720943_a_at) / Fold change /veh RGS16 (11720943_a_at) / RFU RGS16 (11720944_at) / Fold change /veh RGS16 (11720944_at) / RFU, VPS4B / Fold change vs veh, VPS4B / RFU, CREB1 / Fold change vs veh, CREB1 / RFU, DNAJC13 / Fold change vs veh, DNAJC13 / RFU, GNAQ / Fold change vs veh, GNAQ / RFU, CDK5R1 / Fold change vs veh, CDK5R1 / RFU, ZRANB3 / Fold change vs veh, ZRANB3 / RFU, CUL4A / Fold change vs veh, CUL4A / RFU, CCNY / Fold change vs veh, CCNY / RFU, UFL1 / Fold change vs veh, UFL1 / RFU, COG3 / Fold change vs veh, COG3 / RFU, DIAPH2 / Fold change vs veh, DIAPH2 / RFU, SKA2 / Fold change vs veh, SKA2 / RFU, AFF3 / Fold change vs veh, AFF3 / RFU, LMF1 / Fold change vs veh, LMF1 / RFU, IPO11 / Fold change vs veh, IPO11 / RFU, DFFB / Fold change vs veh, DFFB / RFU, FOXP1 / Fold change vs veh, FOXP1 / RFU, CARD8 / Fold change vs veh, CARD8 / RFU, STRN3 / Fold change vs veh, STRN3 / RFU, ADK / Fold change vs veh, ADK / RFU, RASSF2 / Fold change vs veh, RASSF2 / RFU, WIPF1 / Fold change vs veh, WIPF1 / RFU, LARP1B / Fold change vs veh, LARP1B / RFU, RASA1 / Fold change vs veh, RASA1 / RFU, RB1 / Fold change vs veh, RB1 / RFU, PPFIA1 / Fold change vs veh, PPFIA1 / RFU, MAT2A / Fold change vs veh, MAT2A / RFU, CCT5 / Fold change vs veh, CCT5 / RFU, WDR92 / Fold change vs veh, WDR92 / RFU, CUX1 / Fold change vs veh, CUX1 / RFU, TTC7A / Fold change vs veh, TTC7A / RFU, TMEM135 / Fold change vs veh, TMEM135 / RFU, DEPTOR / Fold change vs veh, DEPTOR / RFU, CPM / Fold change vs veh, CPM / RFU, DNAJB6 / Fold change vs veh, DNAJB6 / RFU, CACNA2D3 / Fold change vs veh, CACNA2D3 / RFU, DTX4 / Fold change vs veh, DTX4 / RFU, TFCP2 / Fold change vs veh, TFCP2 / RFU, GMCL1 /// GMCL1P1 / Fold change vs veh, GMCL1 /// GMCL1P1 / RFU, AEBP2 / Fold change vs veh, AEBP2 / RFU, SNHG1 /// SNORD22 /// SNORD25 /// SNORD26 /// SNORD27 /// SNORD28 /// SNORD29 /// SNORD31 / Fold change vs veh, SNHG1 /// SNORD22 /// SNORD25 /// SNORD26 /// SNORD27 /// SNORD28 /// SNORD29 /// SNORD31 / Fold change (Aza/veh), C12orf56 (ProbeSet 11735607_a_at) / Fold change (ACY-1035/veh), C12orf56 (ProbeSet 11735607_a_at) / Fold change (Aza/veh), FGFR1OP (ProbeSet 11751329_s_at) / Fold change (ACY-1035/veh), FGFR1OP (ProbeSet 11751329_s_at) / Fold change (Aza/veh), VPS36 (ProbeSet 11739960_a_at) / Fold change (ACY-1035/veh), VPS36 (ProbeSet 11739960_a_at) / RFU SYPL1 (11715823_x_at) / Fold change /veh SYPL1 (11715823_x_at) / RFU IGFBP7 (11715501_s_at) / Fold change /veh IGFBP7 (11715501_s_at) / RFU REEP3 (11722064_at) / Fold change /veh REEP3 (11722064_at) / RFU IGLL1 (11728026_x_at) / Fold change /veh IGLL1 (11728026_x_at): dose or concentration left out as unconfirmed
Conditions: ProbeSet 11749781_s_at; LIST B

SMILES: Nc1ccc(-c2cccs2)cc1NC(=O)c1ccc2c(c1)cc(C1CC1)n2CCN1CCOCC1 [ACY-1035]
- RFU, BCAT1: 11.38 RFU
